Laboratory results reported in patent US20100304998A1, “Chemical Proteomic Assay for Optimizing Drug Binding to Target Proteins” (MARQUETTE UNIVERSITY, priority 2009, published 2010).

Legend:
[1] = test system: E. coli cells overexpressing DHPR; test: NHS-CRAA in-cell uptake and labeling study
Description: E. coli containing the pET11a DHPR expression construct was inoculated into 30 mL LB culture medium, growing overnight at 37° C., 225 rpm. The next day, 10 mL of this culture was added to two flasks (flasks A and B, each containing 800 mL LB medium with 50 μg/mL carbenicillin). The OD600 was monitored until it reached ˜1.0. To flask A was added 0.8 mL of a 0.4 M IPTG stock to start induction^58. Flask B was used as a control without induction. 5 hours later, cells were collected (centrifuged 10 minutes at 4,000 rpm) and washed once with 100 mM PBS buffer, pH 7.4. The Cells were then suspended in 100 mL of pH 7.4 PBS buffer (8 g NaCl, 0.2 g KCl, 1.44 g Na2HPO4, 0.24 g KH2PO4 in 1.0 L) and incubated for 5 minutes. Then, 1 mL NHS-CRAA ester (2) was added to each flask and incubated at room temperature for about 30 minutes (FIG. 3a). […] The gel was fluorescently imaged on a Kodak Image Station, to selectively detect 1 which has λmax for absorbance and emission at 465 nm and 535 nm^37. Cells were fluorescently imaged in PBS buffer after the wash (before lysis) using 495 nm/520 nm excitation/emission filters on the fluorescence microscope. Complementary fluorescence and bright field images may be shifted slightly relative to each other, because of bacterial motion between image captures. […]

[2] = target: T1, DHPR (dihydrodipicolinate reductase) (Escherichia coli, UniProt P04036); test: Covalent labeling of purified DHPR with NHS-CRAA, with NADH or PDC competitors (SDS-PAGE); type: binding, E. coli
T1 construct: made in house; host or cells: E. coli (pET11a DHPR expression construct)
T1 sequence (P04036 whole entry): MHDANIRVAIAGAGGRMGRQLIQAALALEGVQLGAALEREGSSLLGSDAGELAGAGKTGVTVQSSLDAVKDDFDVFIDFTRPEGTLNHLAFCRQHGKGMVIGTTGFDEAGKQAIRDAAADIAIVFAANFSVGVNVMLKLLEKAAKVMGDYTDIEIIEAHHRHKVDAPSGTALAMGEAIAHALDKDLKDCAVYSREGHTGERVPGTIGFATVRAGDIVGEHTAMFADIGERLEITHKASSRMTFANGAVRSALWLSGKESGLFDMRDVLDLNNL
Description: FIG. 8. SDS-PAGE gel of DHPR that has been labeled with NHS-CRAA active ester, but in the presence of increasing concentrations of either NADH or PDC (2,6-pyridine dicarboxylic acid) competitors, Lane 1, protein standard; Lanes 2-6, increasing NADH ([…]); Lanes 7-10, increasing PDC (1.1, 2.3, 4.5, 9.1 mM).
2 (NHS-CRAA) uptake into E. coli cells and labeling of DHPR. To assess whether 1 (CRAA) can make it across bacterial cell walls, and therefore whether 1 is a viable scaffold for anti-infective drug design efforts, experiments were performed to determine if its N-hydroxysuccinimide ester, 2 (NHS-CRAA; FIG. 2), could enter E. coli and label intracellular DHPR (dihydrodipicolinate reductase). DHPR is an anti-infective drug target, and is known to bind the CRAA scaffold (1)^21. The NHS-CRAA active ester (2)^35 was synthesized as in FIG. 2. The NHS (N-hydroxysuccinimide) group reacts with amines, and since it is attached to the linker position of 1 (where the acetic acid chain is attached), it should reside at the interface of the NADH and substrate binding sites^21 (FIG. 1), near lysine 163^36 (see FIG. 7). Indeed, DHPR is labeled with the NHS-CRAA (2) active ester, based on imaging of an SDS-PAGE gel of labeled protein (FIG. 8). Increasing NADH concentration appears to decrease band intensity while PDC has little effect up to 9 mM. […] Next, to explore whether cell wall penetration occurs, uptake of 2 was measured into E. coli that was expressing E. coli DHPR. Since we have recently shown that the CRAA scaffold (1) is bifunctional, in that it is itself weakly fluorescent^33, protein labeling could be monitored by fluorescence imaging of SDS-PAGE gels of crude cell extracts. […] That there is more labeling in cells expressing DHPR is evident based on the more intense color for cells expressing DHPR (FIG. 3c) and on fluorescence images of the cells (FIG. 3d).

[3] = test system: potassium currents IA, IK, IAHP, IQ, IL; settings: IQ and IL currents; cited from earlier work
[4] = target: KCNQ1 and minK (KCNE1) potassium channel (Homo sapiens, UniProt P51787); settings: cardiac delayed rectifier potassium channel of heart muscle cells; read-out: KD for block of the KCNQ1/minK (KCNE1) channel; cited from earlier work
Chain of KCNQ1 and minK (KCNE1) potassium channel (P51787 whole entry): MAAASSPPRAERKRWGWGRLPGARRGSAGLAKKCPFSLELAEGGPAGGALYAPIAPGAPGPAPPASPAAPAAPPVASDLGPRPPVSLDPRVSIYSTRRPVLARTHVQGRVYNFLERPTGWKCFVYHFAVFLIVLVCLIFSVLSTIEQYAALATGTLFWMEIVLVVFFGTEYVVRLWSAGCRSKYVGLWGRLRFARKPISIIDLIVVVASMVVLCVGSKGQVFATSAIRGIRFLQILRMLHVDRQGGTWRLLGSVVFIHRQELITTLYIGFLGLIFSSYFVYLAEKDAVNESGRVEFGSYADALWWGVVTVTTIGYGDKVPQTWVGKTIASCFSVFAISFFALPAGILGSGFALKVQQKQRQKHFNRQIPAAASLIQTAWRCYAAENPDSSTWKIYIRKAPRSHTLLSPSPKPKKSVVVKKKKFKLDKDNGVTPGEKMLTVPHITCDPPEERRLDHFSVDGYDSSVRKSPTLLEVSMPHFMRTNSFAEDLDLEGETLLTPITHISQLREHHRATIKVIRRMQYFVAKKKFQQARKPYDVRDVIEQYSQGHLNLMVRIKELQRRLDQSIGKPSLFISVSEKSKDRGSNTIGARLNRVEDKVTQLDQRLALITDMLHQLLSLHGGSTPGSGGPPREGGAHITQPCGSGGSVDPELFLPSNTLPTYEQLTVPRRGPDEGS

[5] = test system: ERG potassium channels; settings: ERG channels expressed by neurons; cited from earlier work
[6] = target: T2, glutamate dehydrogenase (GDH) (Bos taurus, UniProt P00366); test: 1H NMR STD (saturation transfer difference) binding assay, GDH; design: species or system bovine
T2 construct: Glutamate dehydrogenase (bovine liver, GDH); purchased Sigma Aldrich; host or cells: bovine liver
T2 sequence (P00366 58-558): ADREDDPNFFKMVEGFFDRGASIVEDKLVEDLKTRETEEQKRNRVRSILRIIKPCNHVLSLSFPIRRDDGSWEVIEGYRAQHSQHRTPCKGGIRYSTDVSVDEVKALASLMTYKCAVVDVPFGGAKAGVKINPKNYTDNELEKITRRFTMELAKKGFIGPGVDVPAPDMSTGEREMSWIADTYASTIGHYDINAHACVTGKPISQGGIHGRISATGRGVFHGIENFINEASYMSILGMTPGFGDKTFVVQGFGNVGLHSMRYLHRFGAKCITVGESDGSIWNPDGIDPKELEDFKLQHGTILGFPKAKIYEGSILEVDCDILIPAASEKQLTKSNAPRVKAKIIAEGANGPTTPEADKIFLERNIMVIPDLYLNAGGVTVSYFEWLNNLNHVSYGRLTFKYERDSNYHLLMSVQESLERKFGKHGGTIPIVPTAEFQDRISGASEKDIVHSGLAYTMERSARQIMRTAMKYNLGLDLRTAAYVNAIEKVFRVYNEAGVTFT
Description: (§1) ^1H NMR STD (saturation transfer difference) spectra for CRAA binding to either malate dehydrogenase (MDH) (FIG. 13A) or glutamate dehydrogenase (FIG. 13B) establishes that the CRAA scaffold binds proteins that were identified using the proteomic assay, thereby validing the method for identifying non-target proteins. Glutamate dehydrogenase (bovine liver, GDH) and malate dehydrogenase (porcine heart) were from Sigma Aldrich. Both experiments were performed on a 600 MHz Varian NMR system at 25° C. using the cyclonecyclnoe pulse sequence (a steady state NOE experiment) with 256 scans. On and off resonance irradiations were at 0.5 and −11 ppm respectively, performed for 4 seconds each. […] (See FIG. 13). In both cases, CRAA was present at 3 mM and the binding study was done in a 25 mM phosphate buffer at pH 7.6 with 250 ug GDH or 166 ug MDH in a total volume of 0.6 mLs. The use of STD assays in functional proteomic binding studies has been described (Yao and Sem, FEBS Lett. (2005) 579, 661-666, the content of which is incorporated herein by reference in its entirety). To verify that binding had occurred in the cofactor binding site, competition studies were also performed (not shown). Addition of 1 mM NADH to the MDH sample caused a decrease in STD signal for CRAA (3 mM) of 35%. The analogous competition with GDH (using NADP+ as competitor) produced no change in STD signal for CRAA—which might be due to higher affinity for CRAA than to NADP+. To test this hypothesis, the competition was reversed where 3 mM NADP+ STD signal was monitored before and after adding CRAA (1 mM). A decrease in the NADP+ STD signal of 50% was now observed, due to CRAA addition.

[7] = test system: human liver proteome; test: CRAA affinity column target fishing with nanospray-LC/MS/MS, human liver proteome; type: binding; settings: elution with free CRAA
[8] = target: T3, malate dehydrogenase (MDH) (Sus scrofa, UniProt P00346); test: 1H NMR STD (saturation transfer difference) binding assay, MDH; design: species or system porcine; settings: CRAA 3 mM
T3 construct: malate dehydrogenase (porcine heart) were from Sigma Aldrich; purchased Sigma Aldrich; host or cells: porcine heart
T3 sequence (P00346 25-338): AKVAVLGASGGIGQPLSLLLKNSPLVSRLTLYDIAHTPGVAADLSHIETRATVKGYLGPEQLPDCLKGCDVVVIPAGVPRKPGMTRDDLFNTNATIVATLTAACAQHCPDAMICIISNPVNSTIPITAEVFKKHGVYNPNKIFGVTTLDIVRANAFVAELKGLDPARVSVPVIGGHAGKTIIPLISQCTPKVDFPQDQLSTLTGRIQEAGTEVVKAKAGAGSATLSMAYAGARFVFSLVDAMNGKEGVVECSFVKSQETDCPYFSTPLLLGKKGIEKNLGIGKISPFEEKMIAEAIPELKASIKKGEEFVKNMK
Description: as §1, with “Addition of 1 mM NADH to the MDH sample caused a decrease in STD signal for CRAA (3 mM) of 35%. The analogous competition with GDH (using NADP+ as competitor) produced no change in STD signal for CRAA—which might be due to higher affinity for CRAA than to NADP+.” left out, “A decrease in the NADP+ STD signal of 50% was now observed, due to CRAA addition.” left out

[9] = test system: KCNQ potassium channel; settings: cited from earlier work

O=C(CN1C(=O)C(=Cc2ccc(O)c(O)c2)SC1=S)ON1C(=O)CCC1=O [NHS-CRAA, 5-[(3,4-dihydroxyphenyl)methylene]-4-oxo-2-thioxo-3-thiazolidineacetic N-hydroxysuccinimide ester]
crossing of the bacterial cell wall ([1]; intact E. coli cells overexpressing DHPR): can cross the cell wall | labeling of DHPR within intact E. coli cells ([1]; intact cells overexpressing DHPR, about 30 minutes, room temperature, fluorescence imaging of SDS-PAGE gel): significant labeling | effect of PDC on labeling of DHPR ([2]; PDC up to 9 mM): little effect | covalent labeling of purified DHPR ([2]; imaging of SDS-PAGE gel): labeled | effect of NADH on labeling of DHPR ([2]; increasing NADH concentration): partially blocked

O=C1N(c2ccccc2)c2ccccc2C1(Cc1ccncc1)Cc1ccncc1 [linopirdine]
concentration at which several other potassium currents are blocked [3]: above 10 μM

O=C1c2ccccc2C(Cc2ccncc2)(Cc2ccncc2)c2ccccc21 [XE991]
Kd [4]: 11.1 ± 1.8 µM | effect on ERG potassium channels [5]: binds to and blocks the activity

O=C(O)CN1C(=O)C(=Cc2ccc(O)c(O)c2)SC1=S [CRAA, 5-[(3,4-dihydroxyphenyl)methylene]-4-oxo-2-thioxo-3-thiazolidineacetic acid]
binding to glutamate dehydrogenase by STD difference spectrum ([6]; CRAA 3 mM, 250 ug GDH, 25 mM phosphate pH 7.6, 25° C.): binds to protein | decrease in the NADP+ STD signal due to CRAA addition ([6]; GDH, 3 mM NADP+, CRAA 1 mM): 50% | change in STD signal for CRAA with NADP+ as competitor ([6]; GDH, NADP+ competitor): no change | share of captured proteins that are NAD(P)(H)-binding proteins [7]: > 50% | binding to malate dehydrogenase by STD difference spectrum ([8]; 166 ug MDH, 25 mM phosphate pH 7.6, 25° C.): binds to protein | decrease in STD signal for CRAA on addition of NADH ([8]; 1 mM NADH competitor, MDH): 35%

O=C1c2ccccc2C(Cc2ccnc(F)c2)(Cc2ccnc(F)c2)c2ccccc21 [DMP543, 10, 10-Bis[(2-fluoro-4-pyridinyl)methyl]-9(10H)-anthracenone]
effect on the KCNQ potassium channel [9]: activate
